Data: the CheMixHub ionic liquid set

Assay: xn = mol fraction of the nth substance listed

CC(=O)c1ccccc1 + CCCC[n+]1ccn(C)c1.F[P-](F)(F)(F)(F)F
100 kPa
Conditions | viscosity [mPa·s]
293.15 K, x1 = 0.5999 | 49.3
303.15 K, x1 = 0.2999 | 45
313.15 K, x1 = 0.4973 | 21.6
313.15 K, x1 = 0.5999 | 16.5
323.15 K, x1 = 0.0913 | 30.2
323.15 K, x1 = 0.3908 | 20.1
323.15 K, x1 = 0.697 | 8
323.15 K, x1 = 0.7999 | 6
323.15 K, x1 = 0.95 | 1.89
333.15 K, x1 = 0.0913 | 20.3
333.15 K, x1 = 0.2999 | 17.7
333.15 K, x1 = 0.9002 | 3.48
333.15 K, x1 = 1 | 1.09

CN(C)C=O + CCCC[n+]1ccn(C)c1.F[P-](F)(F)(F)(F)F
Conditions | viscosity [mPa·s]
303.15 K, 101 kPa, x1 = 1 | 0.82

CCCC[n+]1ccn(C)c1.O=S(=O)([N-]S(=O)(=O)C(F)(F)F)C(F)(F)F + CCCC[n+]1ccn(C)c1.N#C[C-](C#N)C#N
100 kPa, x1 = 1
Conditions | viscosity [mPa·s]
283.15 K | 106.8
288.15 K | 82.2
293.15 K | 64.5
298.15 K | 51.6
303.15 K | 41.9
308.15 K | 34.6
313.15 K | 28.9
318.15 K | 24.5
323.15 K | 20.9
328.15 K | 18.05
333.15 K | 15.72
338.15 K | 13.8
343.15 K | 12.2
348.15 K | 10.86
353.15 K | 9.72
358.15 K | 8.75
363.15 K | 7.93

CCCCCCO + CCCC[n+]1ccn(C)c1.N#C[S-]
101 kPa, x1 = 1
Conditions | viscosity [mPa·s]
308.15 K | 3.33
338.15 K | 1.57

CN1CCCC1=O + CCCC[n+]1ccn(C)c1.N#C[S-]
101 kPa, x2 = 0
Conditions | viscosity [mPa·s]
288.15 K | 2.133
298.15 K | 1.791
308.15 K | 1.549
318.15 K | 1.285

CCCCCCO + CCCC[n+]1ccn(C)c1.O=S(=O)([N-]S(=O)(=O)C(F)(F)F)C(F)(F)F
298 K, 100 kPa
Conditions | electrical conductivity [S/m] | viscosity [mPa·s]
x2 = 0 | – | 4.502
x2 = 0.6 | 0.5605 | –
x2 = 0.7 | 0.491 | 26.59
x2 = 0.8 | 0.4635 | –
x2 = 0.8006 | – | 32.43
x2 = 0.899 | – | 40.3
x2 = 0.9 | 0.427 | –

CCCC[n+]1ccn(C)c1.F[P-](F)(F)(F)(F)F + CCCC[n+]1ccn(C)c1.O=S(=O)([N-]S(=O)(=O)C(F)(F)F)C(F)(F)F
Conditions | viscosity [mPa·s]
313.15 K, 100 kPa, x1 = 0.5 | 49.8

CCOC(C)=O + CCCC[n+]1ccn(C)c1.O=S(=O)([N-]S(=O)(=O)C(F)(F)F)C(F)(F)F
298.15 K, 101 kPa
Conditions | viscosity [mPa·s]
x1 = 0.092 | 40
x1 = 0.2303 | 26.5

O=C1CCCCCO1 + CCCC[n+]1ccn(C)c1.O=S(=O)([N-]S(=O)(=O)C(F)(F)F)C(F)(F)F
electrical conductivity [S/m], 100 kPa, frequency 0.01 MHz
Conditions | 293.15 K | 298.15 K | 303.15 K | 308.15 K | 313.15 K | 318.15 K | 323.15 K
x2 = 0.05 | 0.137 | 0.15 | 0.162 | 0.175 | 0.188 | 0.201 | 0.209
x2 = 0.1002 | 0.269 | 0.294 | 0.319 | 0.338 | 0.364 | 0.393 | 0.421
x2 = 0.1505 | 0.378 | 0.414 | 0.454 | 0.485 | 0.521 | 0.565 | 0.605
x2 = 0.1985 | 0.504 | 0.548 | 0.598 | 0.649 | 0.706 | 0.772 | 0.847
x2 = 0.3001 | 0.589 | 0.647 | 0.715 | 0.779 | 0.855 | 0.943 | 1.03
x2 = 0.3987 | 0.567 | 0.64 | 0.721 | 0.803 | 0.894 | 0.983 | 1.08
x2 = 0.4903 | 0.526 | 0.594 | 0.674 | 0.766 | 0.856 | 0.955 | 1.05
x2 = 0.6309 | 0.451 | 0.523 | 0.607 | 0.688 | 0.774 | 0.872 | 0.969
x2 = 0.6988 | 0.418 | 0.489 | 0.564 | 0.645 | 0.73 | 0.829 | 0.928
x2 = 0.8042 | 0.374 | 0.441 | 0.515 | 0.598 | 0.689 | 0.783 | 0.885
x2 = 0.883 | 0.356 | 0.417 | 0.489 | 0.573 | 0.665 | 0.759 | 0.862

CCCC[n+]1ccn(C)c1.F[P-](F)(F)(F)(F)F + CCCC[n+]1ccn(C)c1.O=S(=O)([O-])C(F)(F)F
Conditions | viscosity [mPa·s]
318.15 K, 100 kPa, x1 = 1 | 87.7

CCOC(C)=O + CCCC[n+]1ccn(C)c1.O=S(=O)([O-])C(F)(F)F
Conditions | viscosity [mPa·s]
298.15 K, 100 kPa, x2 = 0 | 0.42

CCCCCCO + CCCC[n+]1ccn(C)c1.O=[N+]([O-])[O-]
100 kPa, x2 = 0
Conditions | viscosity [mPa·s]
293.15 K | 5.37
303.15 K | 3.94
313.15 K | 2.95
323.15 K | 2.26

CC#N + CCCC[n+]1ccn(C)c1.[Cl-]
Conditions | viscosity [mPa·s]
308.15 K, 101 kPa, x1 = 1 | 0.31

CN(C)C=O + CCCC[n+]1ccn(C)c1.[Cl-]
Conditions | viscosity [mPa·s]
288.15 K, 101 kPa, x1 = 1 | 0.94

CCCC[n+]1ccn(C)c1.O=S(=O)([N-]S(=O)(=O)C(F)(F)F)C(F)(F)F + CCCO
298 K, 100 kPa
Conditions | electrical conductivity [S/m] | viscosity [mPa·s]
x1 = 0.02 | 0.137 | –
x1 = 0.05 | – | 2.742
x1 = 0.06 | 0.348 | –
x1 = 0.07 | 0.3949 | –
x1 = 0.1 | 0.5104 | 3.685
x1 = 0.1996 | – | 5.689
x1 = 0.2 | 0.7444 | –
x1 = 0.3 | 0.8144 | –
x1 = 0.3005 | – | 8.179
x1 = 0.3996 | – | 11.32
x1 = 0.4 | 0.804 | –
x1 = 0.4995 | – | 15.01
x1 = 0.5 | 0.7509 | –
x1 = 0.5478 | – | 17.08
x1 = 0.6 | 0.686 | –
x1 = 0.6957 | – | 24.54
x1 = 0.7 | 0.6239 | –
x1 = 0.8 | 0.5324 | –
x1 = 0.8024 | – | 32.15
x1 = 0.9 | 0.461 | –
x1 = 0.9018 | – | 40.15
x1 = 1 | – | 49.7

CC#N + CCC[N+]1(C)CCCC1.O=S(=O)([N-]S(=O)(=O)C(F)(F)F)C(F)(F)F
101 kPa, x2 = 0
Conditions | viscosity [mPa·s]
278.15 K | 0.411
288.15 K | 0.38
298.15 K | 0.346
308.15 K | 0.311
318.15 K | 0.279
328.15 K | 0.248
